# Source: patent publication US4183930A, “Amino derivatives of pyrazolo [1,5-a]s-triazine, and their therapeutic applications” (Aron S.A., priority 1978, dated 1980)
# Like-named read-outs stand apart in the source and are kept apart here.
# What was measured:
# [1] = test system: isolated trachea of guinea-pigs; test: Dilatation of the isolated trachea of guinea-pigs (Castillo & De Beer); set-up: species or system guinea-pig; settings: 10 γ/ml, tensile load 500 mg; for % dilatation (tensile variation with respect to the activity of theophylline taken as 100%): relative to theophylline = 100%
# Procedure: (a) Action on the isolated trachea of guinea-pigs The trachea is prepared according to the technique disclosed by Castillo & De Beer (J. Pharmacol. Exper. […] The organ is submitted to a tensile load of 500 mg.
# [2] = test system: bronchospasm induced by acetylcholine, serotonine and histamine; test: Prevention of bronchospasm in anesthetized guinea-pigs (Konzett and Rossler); format: in vivo, guinea-pig; settings: Cavia porcellus, iv, spasm by acetylcholine (10-20 γ/kg i.v.), serotonine (5 γ/kg i.v.) and histamine (10 γ/kg i.v.), read-out: ED100 (dosage providing 100% inhibition of the spasm)
# [3] = test system: anaphylactic shock in mice; test: Protective effect against anaphylactic shock in mice; format: in vivo, mouse; settings: 100 mg/kg i.p., 30 min prior to albumin; for responders at 100 mg/kg: Mus musculus, ip, 0.5 h, read-out: % surviving animals; for Number of dead animals: dead/total
# Procedure: (a) Protective effect against anaphylactic shock in mice
# The protective effect against anaphylactic shock was investigated according to the technique disclosed by Duhault and co-workers (Arzneim. Forschung, 1972, II, 1947). Four weeks after sensitization to bovine albumin, intravenous injection of 0.3 mg bovine albumin in mice causes a fatal anaphylactic shock within the 30 minutes which follow said injection.
# The protective effect of compounds of the formula (I), on intraperitoneal administration, at a dosage of 100 mg/kg 30 minutes prior to albumin injection is illustrated in Table III.
# [4] = test system: passive cutaneous anaphylaxis in rats; test: Protective effect against passive cutaneous anaphylaxis (PCA) in rats; format: in vivo; settings: Rattus norvegicus, ip, 100 mg/kg i.p., 30 min prior to ovalbumin injection, read-out: % Protection (with respect to the controls)
# Procedure: (b) Protective effect against passive cutaneous anaphylaxis in rats
# The protective effect against passive cutaneous anaphylaxis (PCA) in rats were investigated according to the technique disclosed by Rosenthale and co-workers (J. Pharm. Exp. Therap. 1976, 197, 725-733). Antisera were prepared by sub-cutaneous injection of 1 mg/ml ovalbumin and by intraperitoneal injection of b 30×10^9 /ml Bacillus pertussis. The PCA reaction was visualized on intravenous injection of antigen (ovalbumin) and Evans Blue in rats which had been intradermally administered the antiserum (4 injections in the shaved back of each rat) 72 hours previously. The protective effect obtained on intraperitoneal administration of the compounds at a dosage of 100 mg/kg 30 minutes prior to ovalbumin injection is set forth in Table IV.
# To determine the percent protection, the length of the longest diameter o
# the spot and the length of the diameter perpendicular thereto are
# measured. The product is expressed as mm^2.
# rats = test: Chronic toxicity in rats, orally, 3 months; format: in vivo, rat; settings: 3 months, 25, 100 and 300 mg/kg
# humans = test: First clinical tests in humans; format: in vivo, human
# Excerpt: The first clinical tests provided the following data:
# (2) In clinical pharmacology, functional respiratory exploration determinations provided the same bronchodilator effect found in animals.
# mice [5] = settings: mouse, in vivo
# in vivo = settings: mouse
# dogs = test: Chronic toxicity in dogs, 1 month; format: in vivo, dog; settings: 20 and 160 mg/kg
# mice [6] = test: Acute toxicity in mice; settings: dosage 1000 mg/kg
# [7] = Series 2 (controls 50% surviving)
# [8] = Series 3 (controls 25% surviving)
# [9] = Series 4 (controls 30% surviving)
Structure (SMILES),Tensile variation [1] [mg],% dilatation (tensile variation with respect to the activity of theophylline taken as 100%) [1] [%],ED100 [2] [mg/kg],inhibition in vivo at 100 mg/kg [4] [%],LD50 (in vivo; po) [mg/kg],other results
"Nc1nc(N)n2nccc2n1 [Example 1, 2,4-Diamino-pyrazolo[1,5-a]s.triazine]",-60,67,20 to 25,42,1250,"responders at 100 mg/kg ([3]; Series 1 (controls 20% surviving)): 50%; Number of dead animals ([3]; mice sensitized to bovine albumin, Series 1 (controls 16/20)): 10/20; alteration of the biological constants / histological injury of the various organs (rats): neither alteration of the biological constants nor histological injury of the various organs; tolerance in humans (humans): good tolerance; Number of dead animals at the dosage indicated, i.v. (mice [5]): no"
"Cc1cc2nc(N)nc(N)n2n1 [Example 2, 2,4-Diamino-7-methyl-pyrazolo[1,5-a]s.triazine]",-100,111,15 to 20,56,900,"Number of dead animals ([3]; Series 2 (controls 10/20)): 2/21; responders at 100 mg/kg [3, 7]: 90.5%; alteration of the biological constants / histological injury of the various organs (rats): neither alteration of the biological constants nor histological injury of the various organs; alteration of the biological constants / histological injury of the various organs (dogs): neither alteration of the biological constants nor histological injury of the various organs; tolerance in humans (humans): good tolerance; LD50 (in vivo; iv): 380 mg/kg"
"CCc1nn2c(N)nc(N)nc2c1C [Example 3, 2,4-Diamino-7-ethyl-8-methyl-pyrazolo[1,5-a]s.triazine]",-100,111,–,92,200,"Number of dead animals ([3]; Series 3 (controls 15/20)): 6/19; responders at 100 mg/kg [3, 8]: 68.5%"
"CNc1nc(N)nc2cc(C)nn12 [Example 4, 2-Amino-4-methylamino-7-methyl-pyrazolo[1,5-a]s.triazine]",-153,170,–,92,–,"Number of dead animals ([3]; Series 3 (controls 15/20)): 9/20; responders at 100 mg/kg [3, 8]: 55%; alteration of the biological constants / histological injury of the various organs (rats): neither alteration of the biological constants nor histological injury of the various organs; tolerance in humans (humans): good tolerance; LD50 p.o. (mice [5]; po): 1000 mg/kg; LD50 (in vivo; iv): 300 mg/kg"
"CNc1nc(NC)n2nc(C)cc2n1 [Example 5, 2,4-Bis-(methylamino)-7-methyl-pyrazolo[1,5-a]s.triazine]",-207,230,10,83,300,–
"Cc1cc2nc(N)nc(NC(C)C)n2n1 [Example 6, 2-amino-4-isopropylamino-7-methyl-pyrazolo[1,5-a]s.triazine methane sulfonate]",-200,220,5,–,–,"Number of dead animals ([3]; Series 3 (controls 15/20)): 12/20; responders at 100 mg/kg [3, 8]: 40%; Number of dead animals at the dosage indicated, p.o. (mice [5]): one"
"C=CCNc1nc(N)nc2cc(C)nn12 [Example 7, 2-Amino-4-allylamino-7-methyl-pyrazolo[1,5-a]s.triazine]",-180,200,5,71,1200,"Number of dead animals ([3]; Series 4 (controls 14/20)): 2/20; responders at 100 mg/kg [3, 9]: 90%; Number of dead animals at the dosage indicated, i.v. (mice [5]): no"
"Cc1cc2nc(N)nc(NCC3CCCO3)n2n1 (centres unmarked) [Example 8, 2-Amino-4-tetrahydrofurfurylamino-7-methyl-pyrazolo[1,5-a]s.triazine]",-72,80,–,54,–,"Number of dead animals ([3]; Series 4 (controls 14/20)): 6/21; responders at 100 mg/kg [3, 9]: 71%; Number of dead animals at the dosage indicated, p.o. (mice [5]): two"
CCCNc1nc(N)nc2cc(C)nn12 [Example 9],–,–,–,69,–,"Number of dead animals at the dosage indicated, p.o. (mice [6]): one"
Cc1cc2nc(N)nc(NC(C)(C)C)n2n1 [Example 10],–,–,–,50,–,"Number of dead animals at the dosage indicated, p.o. (mice [6]): one"
C=CCNc1nc(N)nc2ccnn12 [Example 11],–,–,–,–,–,"Number of dead animals at the dosage indicated, p.o. (mice [6]): one"
"Cn1c(=O)c2[nH]cnc2n(C)c1=O [Theophylline, reference compound]",-90,–,20 to 25,72,–,"Number of dead animals ([3]; Series 2 (controls 10/20)): 4/20; responders at 100 mg/kg [3, 7]: 80%"
